This note sets out measurements from BindingDB's records for doi:10.1080/14756360400002007 (Crefsip, 2005).

In one test the target is T1, Glutamate--tRNA ligase (Escherichia coli (strain K12), UniProt P04805).
T1 sequence (P04805 whole entry): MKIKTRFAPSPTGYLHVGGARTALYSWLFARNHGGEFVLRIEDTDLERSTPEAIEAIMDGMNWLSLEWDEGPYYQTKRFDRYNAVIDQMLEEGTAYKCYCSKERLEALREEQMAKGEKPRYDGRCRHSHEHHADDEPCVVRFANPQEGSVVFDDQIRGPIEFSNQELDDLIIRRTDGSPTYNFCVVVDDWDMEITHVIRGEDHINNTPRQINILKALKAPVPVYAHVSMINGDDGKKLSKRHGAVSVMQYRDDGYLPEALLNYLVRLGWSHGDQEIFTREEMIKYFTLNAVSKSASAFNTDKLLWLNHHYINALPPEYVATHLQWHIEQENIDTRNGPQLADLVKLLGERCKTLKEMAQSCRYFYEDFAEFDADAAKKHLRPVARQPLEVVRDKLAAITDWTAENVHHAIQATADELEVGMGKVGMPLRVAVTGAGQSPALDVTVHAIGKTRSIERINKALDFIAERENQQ
Description: Determination of the Inhibition Type and Constant (Ki). Particulars: pH 7.2; 37 °C. How it is done:
(§1) The Km and Kappm for the amino acid substrate were first calculated from Lineweaver-Burk plots. The Ki values were calculated from the Kappm vs [I] plot. The Ki values for the inhibitors with respect for the amino acid substrates were determined by measuring the apparent Km for the amino acid in the presence of saturating concentrations of both ATP and tRNA, and of various fixed concentrations of the inhibitor.

The target in test [1] is T2, Probable glutamate--tRNA ligase, mitochondrial (Mus musculus, UniProt Q9CXJ1).
T2 sequence (Q9CXJ1 whole entry): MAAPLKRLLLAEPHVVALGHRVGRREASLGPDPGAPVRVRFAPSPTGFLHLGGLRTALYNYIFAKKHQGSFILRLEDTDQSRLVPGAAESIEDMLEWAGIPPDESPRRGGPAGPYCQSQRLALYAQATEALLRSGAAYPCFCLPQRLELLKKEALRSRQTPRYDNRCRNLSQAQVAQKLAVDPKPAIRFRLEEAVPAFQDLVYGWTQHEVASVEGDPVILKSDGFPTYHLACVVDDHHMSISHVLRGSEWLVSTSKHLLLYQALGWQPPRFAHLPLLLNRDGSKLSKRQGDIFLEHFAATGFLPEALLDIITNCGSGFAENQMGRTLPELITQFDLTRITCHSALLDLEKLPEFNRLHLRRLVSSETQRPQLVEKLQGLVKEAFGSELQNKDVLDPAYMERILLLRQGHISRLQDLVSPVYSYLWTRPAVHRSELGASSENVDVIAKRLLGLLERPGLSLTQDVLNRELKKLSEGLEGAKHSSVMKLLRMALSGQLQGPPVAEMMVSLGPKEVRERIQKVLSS
The description is as above. Particulars: pH 8; 30 °C. As for the experimental part:
as §1

Each structure is given as a SMILES string.

As for `Nc1ncnc2c1ncn2[C@@H]1O[C@H](COS(=O)(=O)NC(=O)[C@@H](N)CCC(=O)O)[C@@H](O)[C@H]1O` [5-O-[N-(L-Glutamyl)-sulfamoyl]adenosine 5], the results for the Ki (at Glutamate--tRNA ligase; in test [1]) were 2.8 nM and 70 nM, respectively.
Consider `Nc1ncnc2c1ncn2[C@@H]1O[C@H](COS(=O)(=O)NC(=O)[C@@H]2CCC(=O)N2)[C@@H](O)[C@H]1O` [(5S)-5-{[({[(2R,3S,4R,5R)-5-(6-amino-9H-purin-9-yl)-3,4-dihydroxyoxolan-2-yl]methoxy}sulfonyl)amino]carbonyl}pyrrolidin-2-one], for which the inhibitory constant (Ki) at Glutamate--tRNA ligase came to 15000 nM.

One may read the Ki as the equilibrium dissociation constant of an inhibitor or competing ligand from its target.
